# Assay results: patent US20160279190A1, “MODULATION OF AXON DEGENERATION” (GENENTECH, INC., priority 2008, published 2016)
# Test system: DRGs
# Test: anti-NGF antibody (NGF withdrawal) screen for inhibitors of neuron or axon degeneration
# Assay type: cell-based, mouse
# Conditions: inhibitor 100 μM or 10 μM added 1 hour before 25 μg/ml anti-NGF antibodies; 20 hours; actin staining
# Procedure: The anti-NGF antibody model described above in Example 1 was used in a screen for inhibitors of neuron or axon degeneration. A library of more than 400 small molecules (Tocris Bioscience) was tested to see which, if any, modulate degeneration observed in the presence of anti-NGF antibodies.
# Mouse E13.5 embryos were dissected and placed into L15 medium (Invitrogen). The spinal cord was dissected out from the embryos with DRGs attached. The spinal cords with DRGs attached were placed into L15 medium+5% goat serum (Gibco) on ice. The DRGs were removed using a tungsten needle and the remaining spinal cord was disposed of. Eight well slides were filled with N3-F12 solution (23 ml Ham's F12, 1 ml N3 supplement, and 1 ml 1 M glucose) to which was added 25 ng/ml NGF (Roche). (N3 supplement was made by dilution of N3 100× concentrate, which was made by mixing the following ingredients, in the following order: 5.0 ml Hank's buffered saline solution (HBSS; Ca, Mg free; Invitrogen), 1.0 ml bovine serum albumin (10 mg/ml in HBSS=150 μm), 2.0 ml Transferrin (T1147-1G, human, 100 mg/ml in HBSS=1.1 mM), 1.0 ml sodium selenite (S9133-1MG, 0.01 mg/ml in HBSS=58 μM), 0.4 ml putrescine dihydrochloride (P5780-5G, 80 mg/ml in HBSS=500 mM), 0.2 ml progesterone (P8783-5G, 0.125 mg/ml in absolute ethanol=400 μM), 0.02 ml corticosterone (C2505-500MG, 2 mg/ml in absolute ethanol=5.8 mM), 0.1 ml triiodothyonine, sodium salt (T6397-100MG, 0.2 mg/ml in 0.01 N NaOH=300 μM), 0.4 ml insulin (16634-250MG, bovine pancreas, 241 U/mg, 25 mg/ml in 20 mM HCl=4.4 mM), for a total volume of 10.02 ml (can be stored at −20° C.). An N3 supplement stock was made by combining the following: 10 ml Pen/Strep (100×, Gibco), 10 ml glutamine (200 mM, Gibco), 10 ml MEM vitamins (100×, Gibco), 10 ml N3 concentrate (100×, see above), for a total volume of 40 ml. The mixture was filter sterilized using a 0.22 μm filter, and 1-2 ml aliquots were stored at −20° C.).
# The DRGs were sectioned into halves, and placed in the center of each well of an 8-chamber slide (BD Biocoat PDL/Laminin coated glass, Becton Dickinson). The DRGs were permitted to attach to the slide at room temperature for 5-10 minutes, followed by an overnight incubation at 37° C. Inhibitors of choice were added at a concentration of 100 μM (top row) or 10 μM (bottom row) 1 hour before adding anti-NGF antibodies. The anti-NGF antibodies were added to the right half of the slide (4 wells) at a concentration of 25 μg/ml. After incubation for 20 hours at 37° C., the slides were fixed with 30% sucrose/8% paraformaldehyde (PFA) by adding 250 μl of the fix solution directly to the 250 μl of culture medium. (To make the 30% sucrose/8% PFA solution, the following ingredients were added to a 600 ml beaker including a stir bar: 250 ml 16% PFA (cat#15710-S, Electron Microscopy Sciences), 50 ml 10×PBS pH 7.4, and 150 g sucrose. The solution was mixed under low heat until dissolved, and then 6-8 drops of 1 M NaOH were added to bring the pH to 7.4. The volume was then brought to 500 ml with water in a graduated cylinder. The solution was mixed well, placed in aliquots, and frozen.) The slides were fixed for 30 minutes, followed by washing once with PBS. All cells were labeled with an actin stain (Alexa-568 conjugated phalloidin; 1:40; Invitrogen), a membrane dye (DiO; 1:200; Invitrogen), and a DNA stain (Hoechst 33258; 1:10,000; Invitrogen) in 0.1% Triton and 1% goat serum for 2 hours at room temperature. […]
smiles,measurement,value
O=C(O)c1ccc2c3c1cccc3c(=O)n1c3ccccc3nc21 [STO-609],Comments (observations on protection against neurodegeneration upon NGF withdrawal),Partial
